Settings: Liquid, Gas chromatography

Cc1coc2c1CC[C@@H](C)C2 [(R)-menthofuran]
Settings | vapor or sublimation pressure [kPa]
298.15 K | 0.036
374.3 K | 2.93
380 K | 3.76
400 K | 8.37
420 K | 17.06
482.4 K | 101.23

— the NIST ThermoML archive (doi:10.1016/j.jct.2016.03.020)
